We go through 13 compounds from patent publication US6936602B1, “Benzazepine derivatives, process for the preparation of the same and uses thereof” (Takeda Chemical Industries, Ltd., priority 1999, dated 2005).

One series relates to HIV-1 BA-L. Briefly: Inhibitory effect on HIV-1 infection to MAGI-CCR5 cell (β-galactosidase blue cell count). Format: cell-based. The note with it: 100 μl medium containing 1.6 μM of Test Compound + 100 μl medium containing 300 PFU of HIV-1 BA-L; MAGI-CCR5 cells; 37° C. for 2 days. The protocol:
(5) Inhibitory Effect on HIV-1 Infection to MAGI-CCR5 Cell
The plasmid where β-galactosidase gene was ligated downstream of HIV-1 LTR was introduced into CD4 positive HeLa cell, to which human CCR5 was further introduced to obtain transformant MAGI-CCR5.
By using said transformant MAGI-CCR5, a degree of HIV-1 infection was calculated using β-galactosidase activity (blue color due to decomposition of 5-bromo-4-chloro-3-indolyl-β-D-galactopyranoside) as an index. Specifically, MAGI-CCR5 cells were suspended in DMEM medium containing 10% serum to prepare 5×10^4 cells/ml suspension. To each well of 96 well plate was inoculated 200 μl of the suspension, and the cells were cultivated at 37° C. overnight. The medium was removed by means of suction, and to the residue was added 100 μl of the above medium containing 1.6 μM of Test Compound and 100 μl of the above medium containing 300 PFU of HIV-1 BA-L cells. The cells were cultivated at 37° C. for 2 days. The medium was removed by means of suction. To the residue was added 200 μl of a cell fixative (PBS containing 1% formaldehyde and 0.2% glutaraldehyde), and the mixture was allowed to stand at room temperature for 5 minutes and washed twice with PBS. To the mixture was added 100 μl of staining solution (PBS containing […] and 0.4 mg/ml X-gal), and the mixture was allowed to stand at 37° C. for 50 minutes and washed twice with PBS. The number of blue cells was counted by a microscope and defined as the number of cells infected with HIV-1. According to this method, inhibition rate of HIV-1 infection was determined.

For a further series, the target named is T1, human CCR5 (Homo sapiens, UniProt P51681).
T1 construct: expressed in transfected cells
T1 sequence (P51681 whole entry): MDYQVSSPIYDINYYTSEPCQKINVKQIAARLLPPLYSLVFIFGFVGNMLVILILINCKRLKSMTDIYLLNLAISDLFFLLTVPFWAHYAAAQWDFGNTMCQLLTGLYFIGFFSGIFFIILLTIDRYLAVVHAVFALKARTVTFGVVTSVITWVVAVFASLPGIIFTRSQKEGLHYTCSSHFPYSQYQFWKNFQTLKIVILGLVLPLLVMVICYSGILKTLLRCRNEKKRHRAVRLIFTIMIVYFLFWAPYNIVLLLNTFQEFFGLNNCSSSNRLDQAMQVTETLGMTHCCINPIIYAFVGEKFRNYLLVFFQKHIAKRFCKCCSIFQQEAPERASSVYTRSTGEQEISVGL
The series can be described thus: Evaluation of test compounds based on CCR5 antagonistic activity: inhibition of [125I]-RANTES binding to CCR5/CHO cells. Conditions: Test Compound 1 μM, 100 pM [125I]-RANTES, room temperature for 40 minutes, read-out: Inhibitory Rate (%). The protocol: Cloning of CCR5 gene was carried out by a PCR method from human spleen cDNA. With using 0.5 ng of spleen cDNA (Toyobo, QUICK-Clone cDNA) as template, PCR was performed in DNA Thermal Cycler 480 (Perkin-Elmer) (reaction conditions: 30 cycles of 95° C. for 1 minute, 60° C. for 1 minute, and 75° C. for 5 minutes) by adding each 25 pmol of primers of a primer set, • SEQ ID NO.: 1 described in Test Example (1) of WO 99/32100 [length of sequence: 34; type of sequence: nucleic acid; strandedness: single; topology: straight; kind of sequence: other nucleic acid synthetic DNA, and • SEQ ID NO.: 2 described in Test Example (1) of WO 99/32100 [length of sequence: 34; type of sequence: nucleic acid; strandedness: single; topology: straight; kind of sequence: other nucleic acid synthetic DNA which were designed referring to nucleotide sequence of CCR5 gene reported by Samson et. al. (Biochemistry, 35(11), 3362-3367 (1996)) and by using TaKaRa EX Taq (Takara Shuzo). The resultant PCR product was subjected to agarose gel electrophoresis to collect about 1.0 kb DNA fragment, which was subjected to Original TA Cloning Kit (Funakoshi) to carry out cloning of CCR5 gene. (2) Preparation of Plasmid for Expression of Human CCR5
The plasmid obtained in the above (1) was digested with restriction enzymes XbaI (Takara Shuzo) and BamHI (Takara Shuzo) and subjected to agarose gel electrophoresis to collect about 1.0 kb DNA fragment.
The DNA fragment was mixed with plasmid pcDNA3.1 (Funakoshi) for expression in animal cells, said plasmid being digested with XbaI and BamHI, and they were ligated with DNA Ligation Kit Ver.2 (Takara Shuzo). The resulting plasmid was subjected to transformation of competent cell of E. coli JM109 (Takara Shuzo) to obtain plasmid pCKR5.
CHO-K1 cells were grown in 750 ml of tissue culture flask (Becton Dickinson) using Ham's F12 medium (Nihon Pharmaceutical) containing 10% fetal calf serum (Life Tech Oriental) and taken off with 0.5 g/L trypsin-0.2 g/L EDTA (Life Tech Oriental). The cells were washed with PBS (Life Tech Oriental), centrifuged (1000 rpm, 5 minutes), and suspended in PBS. With using Gene Pulser (Bio-Rad Laboratories), DNA was introduced into the cells under the conditions shown below. That is, to the cuvette of 0.4 cm gap were added 8×10^6 cells and 10 μg of plasmid pCKR5 for expression of human CCR5, and electroporation was carried out under 0.25 kV of voltage and 960 μF of capacitance. The cells were transferred into Ham's F12 medium containing 10% fetal calf serum, and cultivated for 24 hours. The cells were again taken off and centrifuged, and suspended in Ham's F12 medium containing 10% fetal calf serum and 500 μg/ml of geneticin (Life Tech Oriental). The suspension was diluted to give 10^4 cells/ml of the suspension, which was inoculated on a 96 well plate (Becton Dickinson) to give geneticin resistant cells.
The resulting geneticin resistant cells were cultivated in 96 well plate (Becton Dickinson), and cells expressing CCR5 were selected from the geneticin resistant cells. That is, in assay buffer (Ham's F12 medium containing 0.5% BSA and 20 mM HEPES (Wako Pure Chemical, pH7.2)) to which was added 200 pM of [^125I]-RANTES (Amersham) as a ligand, a binding reaction was carried out at room temperature for 46 minutes, and the buffer was washed with cooled PBS. To the buffer was added 50 μl/well of 1M NaOH, and the mixture was stirred. Radioactivity was determined with a y-counter to select CCR5/CHO cells which specifically bind to the ligand.
The CCR5/CHO cells were inoculated on 96 well microplate (5×10^4 cells/well) and cultivated for 24 hours. The medium was removed by means of suction, and to each well was added an assay buffer containing Test Compound (1 μM) and then 100 pM of [^125I]-RANTES (Amersham) as a ligand. A binding assay was carried out at room temperature for 40 minutes, and an assay buffer was removed by means of suction. […]

In general, melting point refers to the temperature, or range, at which the solid turns liquid.

Consider `CCOCCOc1ccc(-c2ccc3c(c2)C=C(C(=O)Nc2ccc(CN(C)C4CCOCC4)cc2)CCN3C=O)cc1` [Compound 1, 7-[4-(2-ethoxyethoxy)phenyl]-1-formyl-N-[4-[[N-methyl-N-(tetrahydro-2H-pyran-4-yl)amino]methyl]phenyl]-2,3-dihydro-1H-1-benzazepine-4-carboxamide], for which the melting point lay within 192 to 194 °C. In addition, the “Inhibitation Rate (%)” value in the series on HIV-1 BA-L is 85%. Also, the inhibition at 1 µM on human CCR5 turned out to be 93%.

Compound `CC(C)OCCOc1ccc(-c2ccc3c(c2)C=C(C(=O)Nc2ccc(CN(C)C4CCOCC4)cc2)CCN3C=O)cc1` [Compound 14, 1-formyl-N-[4-[[N-methyl-N-(tetrahydro-2H-pyran-4-yl)amino]methyl]phenyl]-7-[4-(2-propoxy)ethoxyphenyl]-2,3-dihydro-1H-1-benzazepine-4-carboxamide] returned a melting point of 187 to 189 °C. Also, the “Inhibitation Rate (%)” value in the series with HIV-1 BA-L worked out at 91%. In addition, the inhibition at 1 µM on human CCR5 came out at 96%.

On to `CCOCCOc1ccc(-c2ccc3c(c2)C=C(C(=O)Nc2ccc(CN(C)C4CCOCC4)cc2)CCN3CC)cc1` [Compound 16, 7-[4-(2-ethoxyethoxy)phenyl]-1-ethyl-N-[4-[[N-methyl-N-(tetrahydro-2H-pyran-4-yl)amino]methyl]phenyl]-2,3-dihydro-1H-1-benzazepine-4-carboxamide], for which the melting point was in the range of 114.5 to 116.5 °C. For the same compound, in the series on HIV-1 BA-L, the “Inhibitation Rate (%)” value was 94%. Also, at human CCR5, the inhibition at 1 µM turned out to be 96%.

`CCCOCCOc1ccc(-c2ccc3c(c2)C=C(C(=O)Nc2ccc(CN(C)C4CCOCC4)cc2)CCN3CCC)cc1` [Compound 26, N-[4-[[N-methyl-N-(tetrahydro-2H-pyran-4-yl)amino]methyl]phenyl]-7-[4-(2-propoxyethoxy)phenyl]-1-propyl-2,3-dihydro-1H-1-benzazepine-4-carboxamide] returned a melting point of 128 to 130 °C. For the same compound, the inhibition at 1 µM on human CCR5 is 100%.

In the case of `CCCCOCCOc1ccc(-c2ccc3c(c2)C=C(C(=O)Nc2ccc(CN(C)C4CCOCC4)cc2)CCN3CCC)cc1` [Compound 27, 7-[4-(2-butoxyethoxy)phenyl]-N-[4-[[N-methyl-N-(tetrahydro-2H-pyran-4-yl)amino]methyl]phenyl]-1-propyl-2,3-dihydro-1H-1-benzazepine-4-carboxamide], the melting point was 122 to 124 °C. Besides, on human CCR5, the inhibition at 1 µM stood at 100%.

On to `CCCCOCCOc1ccc(-c2ccc3c(c2)C=C(C(=O)Nc2ccc(CN(C)C4CCOCC4)cc2)CCN3Cc2ccccc2)cc1` [Compound 33, 1-benzyl-7-[4-(2-butoxyethoxy)phenyl]-N-[4-[[N-methyl-N-(tetrahydro-2H-pyran-4-yl)amino]methyl]phenyl]-2,3-dihydro-1H-1-benzazepine-4-carboxamide], for which the melting point was in the range of 127 to 131 °C. The inhibition at 1 µM at human CCR5 is 98%.

Regarding `CCCCOCCOc1ccc(-c2ccc3c(c2)C=C(C(=O)Nc2ccc(CN(C)C4CCOCC4)cc2)CCN3CC2CC2)cc1` [Compound 35, 7-[4-(2-butoxyethoxy)phenyl]-1-cyclopropylmethyl-N-[4-[[N-methyl-N-(tetrahydro-2H-pyran-4-yl)amino]methyl]phenyl]-2,3-dihydro-1H-1-benzazepine-4-carboxamide], the melting point is 92 to 94 °C. Moreover, the inhibition at 1 µM at human CCR5 came out at 100%.

The compound `CCCCOCCOc1ccc(-c2ccc3c(c2)C=C(C(=O)Nc2ccc(CN(C)C4CCOCC4)cc2)CCN3c2csc(C)n2)cc1` [Compound 45, 7-[4-(2-butoxyethoxy)phenyl]-1-(2-methylthiazol-4-yl)-N-[4-[[N-methyl-N-(tetrahydro-2H-pyran-4-yl)amino]methyl]phenyl]-2,3-dihydro-1H-1-benzazepine-4-carboxamide] had a melting point of 115 to 123 °C. Moreover, the inhibition at 1 µM on human CCR5 is 100%.

Consider `C=CCN1CCC(C(=O)Nc2ccc(CN(C)C3CCOCC3)cc2)=Cc2cc(-c3ccc(OCCOCCC)cc3)ccc21` [Compound 49, 1-allyl-N-[4-[[N-methyl-N-(tetrahydropyran-4-yl)amino]methyl]phenyl]-7-(4-propoxyethoxyphenyl)-2,3-dihydro-1-benzazepine-4-carboxamide], for which the melting point fell in the range of 110 to 111 °C. Besides, the inhibition at 1 µM at human CCR5 turned out to be 100%.

`C=CCN1CCC(C(=O)Nc2ccc(CN(C)C3CCOCC3)cc2)=Cc2cc(-c3ccc(OCCOCCCC)cc3)ccc21` [Compound 50, 1-allyl-7-(4-butoxyethoxyphenyl)-N-[4-[[N-methyl-N-(tetrahydropyran-4-yl)amino]methyl]phenyl]-2,3-dihydro-1-benzazepine-4-carboxamide] came in with a melting point of 103 to 104 °C. Also, the inhibition at 1 µM at human CCR5 stood at 100%.

`CCCCOCCOc1ccc(-c2ccc3c(c2)C=C(C(=O)Nc2ccc(CN(C)C4CCOCC4)cc2)CCN3Cc2ccsc2)cc1` [Compound 58, 7-(4-butoxyethoxyphenyl)-N-[4-[[N-methyl-N-(tetrahydropyran-4-yl)amino]methyl]phenyl]-1-(3-thienylmethyl)-2,3-dihydro-1-benzazepine-4-carboxamide] had a melting point of 122 to 123 °C. The inhibition at 1 µM on human CCR5 was 99%.

`CCCCOCCOc1ccc(-c2ccc3c(c2)C=C(C(=O)Nc2ccc(CN(C)C4CCOCC4)cc2)CCN3Cc2nnnn2C)cc1` [Compound 101, 7-[4-(2-butoxyethoxy)phenyl]-N-[4-[N-methyl-N-(tetrahydropyran-4-yl)aminomethyl]phenyl]-1-(1-methyltetrazol-5-ylmethyl)-2,3-dihydro-1-benzazepine-4-carboxamide] gave a melting point of 132 to 135 °C. The inhibition at 1 µM at human CCR5 was 100%.

Compound `CCCCOCCOc1ccc(-c2ccc3c(c2)C=C(C(=O)Nc2ccc(CN(C)C4CCOCC4)cc2)CCN3CCCOC)cc1` [Compound 104, 7-[4-(2-butoxyethoxy)phenyl]-1-(3-methoxypropyl)-N-[4-[[N-methyl-N-(tetrahydropyran-4-yl)amino]methyl]phenyl]-2,3-dihydro-1H-1-benzazepine-4-carboxamide] came in with a melting point of 87 to 90 °C. Further, at human CCR5, the inhibition at 1 µM came to 98%.
